In experiment [1] the target is T1, LXRα ligand binding domain (Homo sapiens, UniProt Q13133).
T1 construct: His tag; made in house
T1 sequence (Q13133 183-447): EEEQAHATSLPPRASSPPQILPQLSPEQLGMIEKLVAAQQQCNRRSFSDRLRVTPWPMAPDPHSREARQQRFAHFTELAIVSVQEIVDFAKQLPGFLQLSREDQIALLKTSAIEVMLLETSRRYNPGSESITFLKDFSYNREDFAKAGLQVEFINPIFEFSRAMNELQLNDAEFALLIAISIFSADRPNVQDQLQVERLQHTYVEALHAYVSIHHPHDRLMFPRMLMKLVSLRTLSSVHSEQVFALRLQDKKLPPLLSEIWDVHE
T1 sequence (Q15788 676-700 partner): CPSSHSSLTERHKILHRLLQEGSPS
Briefly: Ligand Sensing Assay for LXRα agonist activity. It is filed as biochemical. To be noted: 1 μM; over a background reading of 10000 fluorescence units. The method, then:
Test Method 2: Ligand Sensing Assay for LXRα Agonist Activity
The assay for LXRα was run according to the procedures of Test Method 1, above using his-tagged LXRα ligand binding domain (amino acids 183-447 of Genbank accession number U22662, with the 14th amino acid corrected to A from R). In this assay 1 μM 24(S),25-epoxycholesterol gave a reading of 20000 fluorescence units over a background reading of 10000 fluorescence units.

Experiment [2] has as its target T2, human LXRβ ligand binding domain (Homo sapiens, UniProt P55055).
T2 construct: made in house; host or cells: E. coli BL21 (DE3), pRSETa
T2 sequence (P55055 184-460 limits assumed): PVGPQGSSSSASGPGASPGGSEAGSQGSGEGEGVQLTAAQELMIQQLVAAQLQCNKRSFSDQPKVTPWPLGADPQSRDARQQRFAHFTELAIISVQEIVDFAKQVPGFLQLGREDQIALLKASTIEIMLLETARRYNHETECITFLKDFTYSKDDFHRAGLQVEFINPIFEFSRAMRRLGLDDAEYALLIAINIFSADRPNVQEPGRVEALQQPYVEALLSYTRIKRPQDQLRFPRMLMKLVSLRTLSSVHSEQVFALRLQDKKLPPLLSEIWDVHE
T2 sequence (Q15788 676-700 partner limits assumed): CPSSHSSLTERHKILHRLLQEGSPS
Briefly: Ligand Sensing Assay (LiSA) for LXRβ agonist activity (SRC1 peptide recruitment). It is filed as biochemical. To be noted: 1 μM; over a background reading of 10000 fluorescence units. From the text:
Test Method 1: Ligand Sensing Assay (LiSA) for LXRβ Agonist Activity
This assay measures the recruitment of a peptide derived from the coactivator protein, SRC1, to the agonist-bound LXR[…]. Peptides derived from other nuclear receptor cofactors may be similarly prepared and assayed.
To generate the human LXRβ ligand binding domain suitable for LISA, a modified polyhistidine tag (MKKGHHHHHHG) (SEQ ID No. 1) was fused in frame to the human LXRβ ligand binding domain (amino acids 185-461 of Genbank accession number U07132) and subcloned into the expression vector pRSETa (Invitrogen) under the control of an IPTG inducible T7 promoter. The human LXRβ ligand binding domain was expressed in E. coli strain BL21 (DE3). Ten-liter fermentation batches were grown in Rich PO4 media with 0.1 mg/mL Ampicillin at 25° C. for 12 hours, cooled to […] and held at that temperature for 36 hours to a density of OD600=14. […]
Typically 25-50 g of cell paste is resuspended in 250-500 mL TBS, pH 8.0 (25 mM Tris, 150 mM NaCl). […] After washing to baseline absorbance with equilibration buffer, the column is washed with approximately one column volume of TBS pH-8.0 containing 95 mM imidazole. […] After washing to baseline absorbance with the dilution buffer the protein is eluted with a gradient from 50-500 mM NaCl. […]

The structures appear in SMILES notation.

Take `C[C@H](CC[C@@H]1OC1(C)C)[C@H]1CC[C@H]2[C@@H]3CC=C4C[C@@H](O)CC[C@]4(C)[C@H]3CC[C@]12C` [24(S),25-epoxycholesterol]: the “reading (fluorescence units)” value in experiment [1] and in experiment [2] was 20000 fluorescence units each time.

The record behind these values is patent US7323494B2, “Compounds and methods” (SmithKline Beecham Corporation, priority 2002, dated 2008).
